Source: article PMC7768359, “Synthesis of Platinum(II) Complexes with Some 1-Methylnitropyrazoles and In Vitro Research on Their Cytotoxic Activity” (Pharmaceuticals, 2020)

How the values were obtained:
[1] = tested on: HL-60 cells; assay: Cell cycle analysis (propidium iodide, flow cytometry); assay type: cell-based, human; details: 80 µM, 48 h
Method: (§1) To establish how compounds 1 and 2 influence the cell cycle and cell death, the HL-60 human promyelocytic leukemia cell line was used. The results are outlined in the Figure 7 and Figure 8, respectively. […] This led to disturbances in the cell cycle progression, expressed as a significant decrease in G0/G1 and S phase, compared to the untreated control (Figure 7).
Cultured HL-60 cells (human acute promyelocytic leukemia) were seeded at a density of 2 × 10^5 cells/mL of culture medium on 24-well plates (Corning, NY, USA) to a final volume of 2 mL. […] The stock solutions of platinum derivatives were prepared as described above.
After 48 h of incubation, the cells were collected and washed in phosphate-buffered saline (PBS; HIIET, Wroclaw, Poland) supplemented with 2% of fetal bovine serum and counted in a hemocytometer. Then, the cells (1 × 10^6 per sample) were washed twice in cold PBS and fixed for 24 h in 70% ethanol at −20 °C. Following this, the cells were washed twice in PBS and incubated with RNAse (8 μg/mL, Fermentas GmbH, St. Leon-Rot, Germany) at 37 °C for 1 h. Finally, the cells were stained for 30 min with propidium iodide (0.5 mg/mL; Sigma-Aldrich, Steinheim, Germany) at 4 °C and the cellular DNA content was determined using a BD LSR Fortessa instrument (Becton Dickinson, San Jose, CA, USA) and WinMDI 2.8 software. The experiment was repeated at least three times.

[2] = Reaction with L-glutathione, UV absorbance at 260 nm; assay type: physicochemical; details: 2 mM GSH, pH 7.4, 37 °C
Description: Platinum compounds have a strong ability to react with sulfur donor ligands. […] These side reactions are considered as playing an important role in mechanisms of tumor resistance to platinum drugs, their inactivation, and toxic side effects. The two most important endogenous thiols to which platinum complexes can bind after intravenous administration or after they enter the cancer cell are reduced L-glutathione (GSH) and metallothionein (MT). In the present work, we investigated reactions of GSH with compounds 1 and 2, measuring the UV absorbance at 260 nm (which indicates the formation of Pt–S and S–S bonds) as a function of time using a double-beam spectrophotometer (Figure 6). […] Despite the better solubility of tested complexes in acetone, dioxane was used in this experiment due to its lack of absorption of UV radiation at 260 nm in contrast to acetone that strongly absorbs at this wavelength preventing a correct measurement of absorbance changes.
The solutions of compounds 1 or 2 in dioxane (30 µL) at 60 mM concentration were added to 3 mL of 2 mM solution of GSH (reduced L-glutathione) previously saturated with argon in the medium containing 10 mmol/L NaCl and 10 mmol/L Tris xHCl buffer, pH 7.4, warmed to 37 °C, reaching a final concentration of […] of the platinum complex. The reaction progress during incubation at 37 °C was monitored using UV absorption spectrometry at 260 nm. […]

[3] = tested on: HL-60 cells; assay: Determination of apoptosis by Annexin V / PI staining; assay type: cell-based, human; details: 48 h
Method: as §1
The HL-60 cells and compounds tested were prepared in the same way as for analysis of the cell cycle distribution. The cells were also exposed to camptothecin (2 µg/mL; Sigma-Aldrich, Steinheim, Germany) as a positive control of apoptosis induction. After 48 h of incubation, or in the case of camptothecin after 24 h, the cells were collected and washed in PBS (HIIET, Wroclaw, Poland) supplemented with 2% of fetal bovine serum and counted in a hemacytometer. The cells (2 × 10^5) were washed twice in PBS. Next, cells were suspended in 200 μL of the mixture of HEPES buffer: 10 mM HEPES, 150 mM NaCl, 5 mM KCl, 1 mM MgCl2, 1.8 mM CaCl2, (HIIET, Wroclaw, Poland) and Annexin V-FITC (Alexis Biochemicals, San Diego, CA, USA), each time freshly prepared according to the manufacturer’s recommendations. After 15 min of incubation in darkness at room temperature, propidium iodide (PI) solution (0.1 mg/mL) was added prior to analysis to give a final concentration of 10 µg/mL. […] Data were analyzed in a BD FACS Diva 6.2 program. […]

Compound | cell death (Sub-G1) and cell cycle progression of HL-60 cells [1] | half-time of the reaction with GSH [2] [min] | proapoptotic activity (Annexin V / propidium iodide) ([3]; HL-60, 80 µM) | effect on the number of necrotic and late apoptotic HL-60 cells ([3]; compared to 0.3 µM cisplatin and control)
Cn1cc([N+](=O)[O-])c[n+]1[Pt@SP2-2]([Cl])([Cl])[n+]1cc([N+](=O)[O-])cn1C [Compound 1, cis-dichloridobis(1-methyl-4-nitropyrazole)platinum(II)] | induced cell death (Sub-G1) | 83 | statistically significant increase in early and late apoptotic cells | –
Cn1cc([N+](=O)[O-])c[n+]1[Pt@SP3-2]([Cl])([Cl])[n+]1cc([N+](=O)[O-])cn1C [Compound 2, trans-dichloridobis(1-methyl-4-nitropyrazole)platinum(II)] | – | 13 | – | did not show any substantial effect
